Reference: patent US5747463A, “Malonate derivatives of glycolipids as cell adhesion inhibitors” (Bristol-Myers Squibb Company, priority 1996, dated 1998)

Legend:
[1] = tested on: myeloid cell lines; settings: cells grown in the presence of the substance; cited from earlier work
[2] = tested on: rats; experiment: Reverse Passive Arthus Reaction in Rats (RPA); format: in vivo, male Sprague Dawley rats; settings: single dose of 3 mg IV, rat, 4 hours after BSA
Excerpt: The reverse passive Arthus reaction in rats is a modification of the method by Mulligan et al., as described in J. Clin. Invest, (1991) 88: 1396-1406. This is an experimental model in which the interaction of antigen-antibodycomplexes and complement leads to a severe vasculitis that is associated with edema, induration, erythema and hemorrhage. The interaction between the antigen-antibody complexes and complement leads to a localized influx of neutrophils. These neutrophils release a variety of mediators that are associated with tissue damage and vascular permeability. The localized inflammatory reaction is measured using different techniques i.e., vascular permeability and neutrophil influx which is evaluated both biochemically and microscopically.
Male Sprague Dawley specific pathogen-free rats with jugular vein cannulae (280-320 g, Hill Top Labs, Pennsylvania) are used in these studies. Animals are acclimated for at least 1 day and individually housed in stainless steel cages. The dorsal region of the rats is closely clipped 2 days prior to the experiments and divided into 4 sites on each side of the midline. Prior to all injections the rats are sedated with 0.4 ml per 300 gm rat of ketamine/rompun [1000 mg (10 ml) of ketamine HCl is mixed with 40 mg (2.0 ml) Rompun] administered IP and or inhalation anesthesia with metafane (methoxyflurane).
Bovin Serum Albumin (BSA) and rabbit polyclonal IgG rich in anti-BSA are purchased from Sigma Chemical Co. (St. Louis, Mo.). Radiolabelled ^125 I-BSA (spAct 1-5 μCi/μg) is purchased from Dupont NEN (Boston, Mass.).
Each rat is administered intradermal (ID) injection of (0.4 mg, 0.6 mg and 0.8 mg) anti-BSA in a volume of 100 μl per injection in normal saline. The ID injections are randomized near the mid dorsal region on both sides of the back bone. Immediately after the ID injections of the anti-BSA, the rats are administered intravenous (IV) injections of BSA (10 mg in 1.0 ml) in normal saline containing ^125 I labeled BSA (1 μCi/ml BSA or 5.0 μCi/kg body/wt) for quantification of dermal valscular injury. Anti-inflammatory agents such as inhibitors of adhesion molecules of the present invention are administered IV at a single dose of 3 mg immediately after BSA. Four (4) hours after the IV injection of BSA, the rats are anesthetized with metafane and 2 to 3 ml of blood is withdrawn via the cannula into an anticoagulant containing (EDTA or Heparin) tube and plasma separated and saved for neutrophil and albumin quantitation. The rats are killed and the skin surrounding the injection site (15 mm diameter) is punched out and weighed. The skin sample and a fixed volume of plasma (0.1 to 1.0 ml) is analyzed in a gamma-counter for ^125 I content. Skin samples from the contralateral side are processed and analyzed for myeloperoxidase activity (MPO) as a measure of neutrophil accumulation. As needed, samples are also processed for histological evaluation of the reacted sites.
The calculation of the plasma protein exudation into skin is made by determining the radioactivity in the tissue and relating this to the level of radioactive albumin in the blood at the time of sacrifice. […] [formula]
Percent inhibition of the test compound at 3 mg was determined as follows: [formula] Myeloperoxidase (MPO)
MPO is located in the azurophil granules of polymorphonuclear leukocytes (PMN). Because of its abundance in these cells (5% dry weight), this enzyme is used as a marker for tissue neutrophil content. For tissue MPO content, the method of Bradley, et al., was used as described in J. Invest. Dermatol. (1982) 78: 206-209. Biopsies from each treatment group were placed in plastic tubes (15×100 mm) containing 10 ml of 0.5% hexadecyltrimethylammonium bromide (HTAB) in 0.05M potassium phosphate buffer pH 6.0. The tissue was then homogenized with a Brinkmann Polytron homogenizer (10s). […]

[3] = tested on: platelet: HL-60 cell adhesion; experiment: HL-60 Platelet Cell Adhesion Assay; format: cell-based; settings: 0.5 h; thrombin-activated human platelets: HL-60 5:1, 30 minutes at room temperature; read-out: P-selectin HL-60 Platelets IC50
Description: HL-60 cells, obtained from American Type Culture Collection, were cultured in RPMI 1640 medium (GIBCO) supplemented with 20% fetal calf serum (Sigma) and 50 μg/ml gentamicin (GIBCO). Cells in log phase growth were harvested, washed and resuspended in Tyrodes buffer containing 5 mM HEPES and 0.2% bovine serum albumin and were fixed with 1% buffered formalin.
Blood from normal human donors was anticoagulated with citrate, layered over 1-Step Platelets (Accurate Chemical Co.) and centrifuged at 350 g for 20 minutes at room temperature. The platelet band was collected, diluted in 2 volumes of Tyrode's Buffer with 5 mM HEPES, 10 mM EDTA, and 0.2% BSA (pH 7.4) (THEB) and centrifuged at 600 g for 10 minutes. The platelet pellet was resuspended in THEB and incubated at room temperature for 1 hour. Calcein-acetoxy methylester (Calcein-Am, Molecular Probes) was added to the platelets at a final concentration of 10 μM and incubated for 10 minutes at 37° C. to label the platelets. Without washing, the platelets were counted on a Coulter counter model ZM, and the concentration was adjusted to 1×10^7 /ml. The platelets were activated with 2 U/ml of human thrombin for 10 minutes in Tyrode's containing 2 mM CaCl2, 5 mM HEPES, and 0.2% BSA (pH 7.4) (THB) at 37° C. and immediately fixed with 1% buffered formalin for 1 to 2 hours at room temperature. A small aliquot of labeled platelets was removed before activation and designated as non-activated.
Both platelets and HL-60 were washed in a ≥25 fold excess volume of Hanks Balanced Salt Solution (HBSS), resuspended in THB and counted. Cell concentrations were adjusted to 2×10^7 /ml for platelets and 4×10^6 /ml for HL-60, this ratio determined to be optimum for platelet: HL-60 cell adhesion. Compounds were incubated with 50 μl of platelets for 30 minutes at room temperature before addition of 50 μl of HL-60. This ratio of 5:1 platelets to HL-60 was incubated for 30 minutes at room temperature before addition of 0.2 ml of THB to increase the volume so the samples could be analyzed on a FACScan cytometer (Becton Dickinson). Non-activated platelets, and activated platelets with 10 mM EDTA were included as controls. Data were collected within a region set for the forward scatter channel corresponding to HL-60 size events.
The percent HL-60 cells which contained bound platelets was determined for each test condition. The inhibition of binding was determined by comparison to standards which were treated with vehicle alone (representing 0% inhibition) and standards whose specific binding had been blocked by the use of EDTA (representing 100% inhibition), by the following formula: [formula] where x=HL-60 cells containing bound platelets in the presence of the compound;
b=HL-60 cells containing bound platelets in the presence of EDTA;
a=HL-60 cells containing bound platelets in the presence of compound vehicle;
z=% inhibition of platelet: HL-60 cell adhesion

[4] = tested on: P-selectin; experiment: P-Selectin adhesion receptor binding: ELISA, inhibition of P-selectin binding to immobilized sulfatides (cell free); settings: 45 minutes at 37° C., pH 8.0
Description: Based on the availability of soluble forms of P-selectin prepared as described by Aruffo, A. et al., Cell, 67, 35-44 (1991), a binding ELISA based assay modified from Foxall, et al., J. Cell Biol., 117, 1895-902 (1992) was developed to measure inhibitors of P-selectin binding to immobilized sulfatides. Such inhibitors were tested in the assay described below.
0.1 ml of sulfatide (SIGMA) at 1 μg/ml in MeOH was added to 48 wells of a 96-well ELISA plate (ProBind, Falcon) and allowed to dry overnight at room temperature. Another set of 48 wells were incubated with the solvent (methanol, Fisher Scientific). The next day the antigen/solvent coated plates were blocked for 1.5 hours at room temperature with 5% BSA (ICN) in buffer containing 20 mM Hepes, 1 mM CaCl2 and 0.15M NaCl, pH 8.0. […] Bound complexes were detected by addition of substrate buffer (95 mM NaOAc.3H2 O, 5 mM citric acid monohydrate, 1.4 mM urea/H2 O2) containing 3,3',5,5'-tetramethylbenzidine (SIGMA). Reactions were stopped by the addition of 3N sulfuric acid and the absorbance read on an ELISA reader at dual wavelengths 450 and 630 nm. […] The data is obtained as percent inhibition of specific binding [formula] and a plot of dose vs. percent inhibition of Rg binding is generated in which IC50 (μM) is calculated and reported as cell free data in Table 1.

[5] = molecular target: T1, P-selectin (Homo sapiens, UniProt P16109); settings: literature; cited from earlier work
T1 sequence (P16109 42-830): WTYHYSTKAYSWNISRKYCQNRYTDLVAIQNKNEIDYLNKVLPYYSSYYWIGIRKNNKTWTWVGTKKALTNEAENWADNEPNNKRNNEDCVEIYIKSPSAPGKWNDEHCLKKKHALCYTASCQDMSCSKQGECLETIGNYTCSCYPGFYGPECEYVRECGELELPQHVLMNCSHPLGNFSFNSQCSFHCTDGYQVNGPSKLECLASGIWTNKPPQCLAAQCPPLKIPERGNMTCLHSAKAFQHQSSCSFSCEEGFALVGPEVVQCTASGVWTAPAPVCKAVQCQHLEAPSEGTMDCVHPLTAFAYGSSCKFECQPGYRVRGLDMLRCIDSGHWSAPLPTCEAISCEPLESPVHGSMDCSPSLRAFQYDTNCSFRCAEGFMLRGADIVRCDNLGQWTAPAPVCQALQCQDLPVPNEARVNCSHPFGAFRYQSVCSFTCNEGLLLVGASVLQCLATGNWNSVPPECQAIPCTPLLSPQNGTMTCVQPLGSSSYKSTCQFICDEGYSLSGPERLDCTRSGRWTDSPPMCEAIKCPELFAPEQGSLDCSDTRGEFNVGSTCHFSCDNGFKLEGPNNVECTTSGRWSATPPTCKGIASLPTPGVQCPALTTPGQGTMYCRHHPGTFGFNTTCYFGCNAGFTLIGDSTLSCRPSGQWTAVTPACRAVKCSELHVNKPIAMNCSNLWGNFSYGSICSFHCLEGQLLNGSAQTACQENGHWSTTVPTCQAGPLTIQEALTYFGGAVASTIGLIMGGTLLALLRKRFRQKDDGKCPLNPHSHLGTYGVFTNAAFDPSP

| Structure (SMILES) | inhibition of binding of P-selectin to myeloid cell lines [1] | RPA MPO % Inhib. (myeloperoxidase) [2] | RPA VP % Inhib. (vascular permeability) [2] | IC50 [3] | IC50 [4] | binding to P-selectin [5] |
| --- | --- | --- | --- | --- | --- | --- |
| O=[Se](=O)(O)O [sodium selenate] | can be inhibited | – | – | – | – | – |
| CCCCCCCCCCCCC/C=C/[C@@H](OC(=O)c1ccccc1)[C@H](CO[C@H]1O[C@H](CO)[C@H](O)[C@H](OC(=O)c2ccccc2)[C@H]1OCCCCC(C(=O)O)C(=O)O)NC(=O)CCCCCCCCCCCCCCC [Example 4, (2S,3R,4E)-3-Benzoyloxy-2-hexadecanoylamino-1-[2-O-(5,5-dicarboxypent-1-yl)-3-O-benzoyl-α-D-galactopyranosyloxy]-4-octadecene] | – | 84% | 60% | 19 µM | 7 µM | – |
| CC(=O)N[C@H]1C(O)O[C@H](CO)[C@@H](O[C@@H]2O[C@H](CO)[C@H](O)[C@H](O)[C@H]2O)[C@@H]1O[C@@H]1O[C@@H](C)[C@@H](O)[C@@H](O)[C@@H]1O (stereo partly shown) [Le^x] | – | – | – | – | – | shown to bind |
| CCCCCCCCCCCCC/C=C/[C@@H](OC(=O)c1ccccc1)[C@H](CO[C@H]1O[C@H](CO)[C@H](O)[C@H](OC(=O)c2ccccc2)[C@H]1OCCC(C(=O)O)C(=O)O)NC(=O)CCCCCCCCCCCCCCC [Example 2, (2S,3R,4E)-3-Benzoyloxy-2-hexadecanoylamino-1-[2-O-(3,3-di-carboxyprop-1-yl)-3-O-benzoyl-α-D-galactopyranosyloxy]-4-octadecene] | – | 96% | 41% | 12 µM | 8.2 µM | – |
